# Results published in paper PMC7982320 (Pharmacology Research & Perspectives, 2021).
# “Also recorded” adds a separate entry of the source.
# Columns and labels:
# human MATE1 = biological target: T1, human MATE1 (Homo sapiens, UniProt Q96FL8); test: Transporter inhibition, uptake assay; assay type: in vitro ADME
# T1 sequence (Q96FL8 1-570): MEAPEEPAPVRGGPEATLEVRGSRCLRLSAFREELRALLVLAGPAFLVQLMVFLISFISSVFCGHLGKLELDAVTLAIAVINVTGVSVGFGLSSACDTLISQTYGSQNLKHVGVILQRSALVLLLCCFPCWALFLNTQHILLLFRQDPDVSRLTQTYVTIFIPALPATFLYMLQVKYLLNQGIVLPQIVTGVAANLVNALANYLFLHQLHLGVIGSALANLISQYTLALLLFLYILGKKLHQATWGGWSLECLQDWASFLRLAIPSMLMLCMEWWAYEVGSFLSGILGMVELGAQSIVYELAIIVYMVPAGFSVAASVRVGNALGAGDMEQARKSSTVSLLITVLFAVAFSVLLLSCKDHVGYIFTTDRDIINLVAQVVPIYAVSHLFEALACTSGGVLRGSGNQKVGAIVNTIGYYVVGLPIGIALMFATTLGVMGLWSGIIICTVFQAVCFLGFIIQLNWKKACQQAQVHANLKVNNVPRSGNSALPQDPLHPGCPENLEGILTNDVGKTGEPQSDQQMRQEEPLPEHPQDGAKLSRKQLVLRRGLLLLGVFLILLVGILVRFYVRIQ
# human OAT3 = biological target: T2, human OAT3 (Homo sapiens, UniProt Q8TCC7); test: Transporter inhibition, uptake assay; assay type: in vitro ADME
# T2 sequence (Q8TCC7 1-542): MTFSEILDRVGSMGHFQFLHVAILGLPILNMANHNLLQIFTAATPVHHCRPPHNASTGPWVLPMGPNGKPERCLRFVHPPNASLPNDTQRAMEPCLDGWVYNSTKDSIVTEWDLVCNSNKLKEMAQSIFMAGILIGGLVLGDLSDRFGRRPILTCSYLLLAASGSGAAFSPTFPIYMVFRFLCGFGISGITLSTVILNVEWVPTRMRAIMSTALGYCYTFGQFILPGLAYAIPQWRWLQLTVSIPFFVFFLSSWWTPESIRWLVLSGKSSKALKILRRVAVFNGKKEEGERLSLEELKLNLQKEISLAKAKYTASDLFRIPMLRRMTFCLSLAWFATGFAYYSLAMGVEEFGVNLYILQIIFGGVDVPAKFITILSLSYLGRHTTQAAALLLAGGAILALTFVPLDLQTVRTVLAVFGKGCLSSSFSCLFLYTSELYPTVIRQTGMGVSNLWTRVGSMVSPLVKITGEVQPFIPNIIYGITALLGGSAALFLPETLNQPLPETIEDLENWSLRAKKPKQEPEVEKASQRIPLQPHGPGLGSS
# CYP1A2 = test: in vitro; assay type: in vitro ADME, human; conditions: 48 h
# human OATP1B3 = biological target: T3, human OATP1B3 (Homo sapiens, UniProt Q9NPD5); test: Transporter inhibition, uptake assay; assay type: in vitro ADME
# T3 sequence (Q9NPD5 1-702): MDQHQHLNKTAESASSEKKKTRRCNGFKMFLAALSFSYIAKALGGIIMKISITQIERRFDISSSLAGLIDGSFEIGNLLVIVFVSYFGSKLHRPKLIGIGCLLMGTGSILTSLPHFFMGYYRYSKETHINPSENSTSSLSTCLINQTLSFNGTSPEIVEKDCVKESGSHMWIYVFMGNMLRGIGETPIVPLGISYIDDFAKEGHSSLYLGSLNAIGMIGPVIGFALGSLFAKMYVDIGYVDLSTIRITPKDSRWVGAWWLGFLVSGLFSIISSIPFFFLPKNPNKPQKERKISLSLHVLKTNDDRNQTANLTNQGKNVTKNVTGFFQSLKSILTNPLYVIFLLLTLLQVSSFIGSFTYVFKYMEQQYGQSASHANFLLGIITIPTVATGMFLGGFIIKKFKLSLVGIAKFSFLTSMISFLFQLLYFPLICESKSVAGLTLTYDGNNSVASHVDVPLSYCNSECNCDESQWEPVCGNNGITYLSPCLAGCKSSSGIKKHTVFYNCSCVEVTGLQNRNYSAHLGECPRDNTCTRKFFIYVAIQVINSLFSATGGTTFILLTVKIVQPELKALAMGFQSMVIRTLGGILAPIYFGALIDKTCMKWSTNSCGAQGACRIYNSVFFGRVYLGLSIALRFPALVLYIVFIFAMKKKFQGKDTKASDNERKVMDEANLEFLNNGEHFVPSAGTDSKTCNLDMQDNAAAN
smiles,measurement,setting,value
"CC1=N[C@]2(C(=O)CO)[C@@H](C[C@H]3[C@@H]4C[C@@H](O)C5=CC(=O)C=C[C@]5(C)[C@H]4[C@@H](O)C[C@@]32C)O1 [6β‐OH‐21‐desDFZ, 6β‐Hydroxy‐21‐desacetyl deflazacort]",inhibitory interaction with transporter,"human MATE1; MATE1, up to 50 µM",no inhibitory interaction
same,Maximum inhibition at 50 µM,"human MATE1; MATE1 UPT, n = 3",26 % of control
same,inhibitory interaction with transporter,"human OAT3; OAT3, up to 50 µM",did not show interaction; also recorded: no inhibitory interaction
same,Maximum inhibition at 50 µM,"human OAT3; OAT3 UPT, n = 3",<20 % of control
same,CYP1A2 enzyme activity fold induction,"CYP1A2; donor one, 0.002 µM",0.783 fold
same,CYP1A2 mRNA fold induction,"CYP1A2; donor one, 0.002 µM",0.657 fold
same,CYP1A2 enzyme activity fold induction,"CYP1A2; donor one, 0.01 µM",0.671 fold
same,CYP1A2 mRNA fold induction,"CYP1A2; donor one, 0.01 µM",0.735 fold
same,CYP1A2 enzyme activity fold induction,"CYP1A2; donor one, 0.05 µM",0.649 fold
same,CYP1A2 mRNA fold induction,"CYP1A2; donor one, 0.05 µM",0.735 fold
same,CYP1A2 enzyme activity fold induction,"CYP1A2; donor one, 0.25 µM",0.753 fold
same,CYP1A2 mRNA fold induction,"CYP1A2; donor one, 0.25 µM",0.667 fold
same,CYP1A2 enzyme activity fold induction,"CYP1A2; donor one, 5 µM",0.770 fold
same,CYP1A2 mRNA fold induction,"CYP1A2; donor one, 5 µM",0.628 fold
same,CYP1A2 enzyme activity fold induction,"CYP1A2; donor one, 10 µM",0.772 fold
same,CYP1A2 mRNA fold induction,"CYP1A2; donor one, 10 µM",0.619 fold
same,CYP1A2 enzyme activity fold induction,"CYP1A2; donor one, 20 µM",0.699 fold
same,CYP1A2 mRNA fold induction,"CYP1A2; donor one, 20 µM",0.741 fold
same,CYP1A2 enzyme activity fold induction,"CYP1A2; donor three, 0.002 µM",1.01 fold
same,CYP1A2 mRNA fold induction,"CYP1A2; donor three, 0.002 µM",0.665 fold
same,CYP1A2 enzyme activity fold induction,"CYP1A2; donor three, 0.01 µM",0.892 fold
same,CYP1A2 mRNA fold induction,"CYP1A2; donor three, 0.01 µM",0.744 fold
same,CYP1A2 enzyme activity fold induction,"CYP1A2; donor three, 0.05 µM",0.812 fold
same,CYP1A2 mRNA fold induction,"CYP1A2; donor three, 0.05 µM",0.701 fold
same,CYP1A2 enzyme activity fold induction,"CYP1A2; donor three, 0.25 µM",0.747 fold
same,CYP1A2 mRNA fold induction,"CYP1A2; donor three, 0.25 µM",0.610 fold
same,CYP1A2 enzyme activity fold induction,"CYP1A2; donor three, 5 µM",0.870 fold
same,CYP1A2 mRNA fold induction,"CYP1A2; donor three, 5 µM",0.635 fold
same,CYP1A2 enzyme activity fold induction,"CYP1A2; donor three, 10 µM",0.954 fold
same,CYP1A2 mRNA fold induction,"CYP1A2; donor three, 10 µM",0.647 fold
same,CYP1A2 enzyme activity fold induction,"CYP1A2; donor three, 20 µM",0.955 fold
same,CYP1A2 mRNA fold induction,"CYP1A2; donor three, 20 µM",0.723 fold
same,CYP1A2 enzyme activity fold induction,"CYP1A2; donor two, 0.002 µM",0.913 fold
same,CYP1A2 mRNA fold induction,"CYP1A2; donor two, 0.002 µM",0.978 fold
same,CYP1A2 enzyme activity fold induction,"CYP1A2; donor two, 0.01 µM",0.880 fold
same,CYP1A2 mRNA fold induction,"CYP1A2; donor two, 0.01 µM",0.871 fold
same,CYP1A2 enzyme activity fold induction,"CYP1A2; donor two, 0.05 µM",0.838 fold
same,CYP1A2 mRNA fold induction,"CYP1A2; donor two, 0.05 µM",0.928 fold
same,CYP1A2 enzyme activity fold induction,"CYP1A2; donor two, 0.25 µM",0.832 fold
same,CYP1A2 mRNA fold induction,"CYP1A2; donor two, 0.25 µM",0.979 fold
same,CYP1A2 enzyme activity fold induction,"CYP1A2; donor two, 5 µM",1.18 fold
same,CYP1A2 mRNA fold induction,"CYP1A2; donor two, 5 µM",0.786 fold
same,CYP1A2 enzyme activity fold induction,"CYP1A2; donor two, 10 µM",1.07 fold
same,CYP1A2 mRNA fold induction,"CYP1A2; donor two, 10 µM",0.840 fold
same,CYP1A2 enzyme activity fold induction,"CYP1A2; donor two, 20 µM",1.18 fold
same,CYP1A2 mRNA fold induction,"CYP1A2; donor two, 20 µM",0.886 fold
same,estimated plasma Cmax/IC50 ratio,"human OATP1B3; OATP1B3, Cmax 0.34 µM, assumed 100% free",0.008
same,Maximum inhibition at 50 µM,"human OATP1B3; OATP1B3 UPT, n = 3",57 % of control
same,IC50,"human OATP1B3; OATP1B3 UPT, brackets: 95% confidence interval",42.2 µM
